Results from PubChem BioAssay AID248 (DTP/NCI, 2004).
Values joined by “and” are separate entries in the source; they are usually repeats but may differ in a detail not shown here. Equal entries are not always repeated. Inconclusive results and toxic doses are left out. Cut-off read from the data, not from the text of the source: active = T/C of 150% or more; inactive = T/C below 125%.

Test system: L1210 leukemia ip in BDF1 mice, survival T/C
Assay: NCI In Vivo Anticancer Drug Screen. Data for tumor model L1210 Leukemia (intraperitoneal) in B6D2F1 (BDF1) mice
Conditions: endpoint: mean survival time, higher = longer survival
Summary of the method: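 Read-out is survival time, reported as the treated-group measurement over the vehicle-control measurement.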

[1] = dose: 100.0 mg/kg/injection, schedule: Q04DX003 (ip), vehicle: Klucel (hydroxypropylcellulose) (HPC)
[2] = dose: 100.0 mg/kg/injection, schedule: Q01DX009 (ip), vehicle: Klucel (hydroxypropylcellulose) (HPC)
[3] = dose: 200.0 mg/kg/injection, schedule: Q01DX009 (ip), vehicle: Klucel (hydroxypropylcellulose) (HPC)
[4] = dose: 400.0 mg/kg/injection, schedule: Q01DX009 (ip), vehicle: Klucel (hydroxypropylcellulose) (HPC)
[5] = dose: 100.0 mg/kg/injection, schedule: Q01DX009 (ip), vehicle: saline
[6] = dose: 100.0 mg/kg/injection, schedule: Q04DX003 (ip), vehicle: saline
[7] = dose: 200.0 mg/kg/injection, schedule: Q04DX003 (ip), vehicle: saline
[8] = dose: 200.0 mg/kg/injection, schedule: Q04DX003 (ip), vehicle: Klucel (hydroxypropylcellulose) (HPC)
[9] = dose: 3.12 mg/kg/injection, schedule: Q01DX009 (ip), vehicle: saline
[10] = dose: 6.25 mg/kg/injection, schedule: Q01DX009 (ip), vehicle: saline
[11] = dose: 50.0 mg/kg/injection, schedule: Q01DX009 (ip), vehicle: saline
[12] = dose: 50.0 mg/kg/injection, schedule: Q04DX003 (ip), vehicle: saline
[13] = dose: 100.0 mg/kg/injection, schedule: Q01DX001 (ip), vehicle: saline
[14] = dose: 200.0 mg/kg/injection, schedule: Q01DX001 (ip), vehicle: saline

Measured: T/C

CCC[CH2][Ge]([Cl])([Cl])[CH2]CCC
inactive: dose: 25.0 mg/kg/injection, schedule: Q01DX009 (ip), vehicle: Klucel (hydroxypropylcellulose) (HPC) 89 % of control | dose: 25.0 mg/kg/injection, schedule: Q04DX003 (ip), vehicle: Klucel (hydroxypropylcellulose) (HPC) 93 % of control | dose: 50.0 mg/kg/injection, schedule: Q01DX009 (ip), vehicle: Klucel (hydroxypropylcellulose) (HPC) 94 % of control | dose: 50.0 mg/kg/injection, schedule: Q04DX003 (ip), vehicle: Klucel (hydroxypropylcellulose) (HPC) 96 % of control | [1] 106 % of control

O=C(O)c1ccccc1/C=N/N1C(=O)CSC1=S
inactive: dose: 2.5 mg/kg/injection, schedule: Q01DX001 (ip), vehicle: carboxymethylcellulose (CMC) 97 % of control | dose: 5.0 mg/kg/injection, schedule: Q01DX001 (ip), vehicle: carboxymethylcellulose (CMC) 97 % of control | dose: 10.0 mg/kg/injection, schedule: Q01DX001 (ip), vehicle: carboxymethylcellulose (CMC) 109 % of control

O=C(Nc1ccc(S(=O)(=O)F)cc1)/C(=C/c1cccc([N+](=O)[O-])c1)c1ccccc1
inactive: [2] 106 % of control | [3] 94 % of control | [4] 100 % of control

Nc1cc(Cl)nc(Cl)n1
inactive: dose: 29.0 mg/kg/injection, schedule: Q01DX Z (ip), vehicle: methylcellulose (MC) 89 % of control | dose: 45.0 mg/kg/injection, schedule: Q01DX Z (ip), vehicle: methylcellulose (MC) 100 % of control | dose: 67.0 mg/kg/injection, schedule: Q01DX Z (ip), vehicle: methylcellulose (MC) 96 % of control | dose: 100.0 mg/kg/injection, schedule: Q01DX Z (ip), vehicle: methylcellulose (MC) 92 % of control

Cc1nnc(NC(=O)C(Cl)(Cl)Cl)s1
inactive: dose: 100.0 mg/kg/injection, schedule: Q01DX001 (ip), vehicle: other 94 % of control | dose: 100.0 mg/kg/injection, schedule: Q04DX003 (ip), vehicle: other 96 % of control | dose: 200.0 mg/kg/injection, schedule: Q01DX001 (ip), vehicle: other 105 % of control | dose: 200.0 mg/kg/injection, schedule: Q04DX003 (ip), vehicle: other 109 % of control | dose: 400.0 mg/kg/injection, schedule: Q01DX001 (ip), vehicle: other 104 % of control | dose: 400.0 mg/kg/injection, schedule: Q04DX003 (ip), vehicle: other 96 % of control

CC(=O)CCP(C)(=O)O
inactive: dose: 100.0 mg/kg/injection, schedule: Q04DX002 (ip), vehicle: saline with Tween-80 95 % of control | dose: 200.0 mg/kg/injection, schedule: Q04DX002 (ip), vehicle: saline with Tween-80 92 % of control | dose: 400.0 mg/kg/injection, schedule: Q04DX002 (ip), vehicle: saline with Tween-80 104 % of control

CC(C)c1cc(C(C)C)nc(NNc2nc(C(C)C)cc(C(C)C)n2)n1
inactive: dose: 100.0 mg/kg/injection, schedule: Q01DX009 (ip), vehicle: saline with Tween-80 102 % of control | dose: 200.0 mg/kg/injection, schedule: Q01DX009 (ip), vehicle: saline with Tween-80 100 % of control | dose: 400.0 mg/kg/injection, schedule: Q01DX009 (ip), vehicle: saline with Tween-80 98 % of control

Cc1nccc(=O)[nH]1
inactive: [5] 99 % of control | [6] 106 % of control | dose: 200.0 mg/kg/injection, schedule: Q01DX009 (ip), vehicle: saline 99 % of control | [7] 106 % of control | dose: 400.0 mg/kg/injection, schedule: Q04DX003 (ip), vehicle: saline 92 % of control

C#CCNc1c(C)cccc1C
inactive: [2] 107 % of control | [1] 98 % of control | [3] 102 % of control | [8] 97 % of control

CCOC(=O)C(C(=O)OCC)=C(C#N)c1c[nH]c2ccccc12
inactive: [2] 103 % of control | [1] 104 % of control | [3] 96 % of control | [8] 95 % of control | [4] 92 % of control | dose: 400.0 mg/kg/injection, schedule: Q04DX003 (ip), vehicle: Klucel (hydroxypropylcellulose) (HPC) 96 % of control

C=C1C2CCC3C4(C)CC(OC5OC(CO)C(OS(=O)(=O)O)C(OS(=O)(=O)O)C5OC(=O)CCCC)CC(C(=O)O)C4CCC3(C2)C1O (stereo not drawn)
inactive: [9] 104 % of control | [10] 92 % of control | dose: 100.0 mg/kg/injection, schedule: Q04DX003 (ip), vehicle: saline with Tween-80 98 % of control | dose: 200.0 mg/kg/injection, schedule: Q04DX003 (ip), vehicle: saline with Tween-80 106 % of control

COC(=O)C1=CCCN(C)C1
inactive: [9] 103 % of control | [10] 101 % of control | dose: 12.5 mg/kg/injection, schedule: Q01DX009 (ip), vehicle: saline 98 % of control | dose: 12.5 mg/kg/injection, schedule: Q04DX003 (ip), vehicle: saline 93 % of control | dose: 20.0 mg/kg/injection, schedule: Q01DX009 (ip), vehicle: saline 93 % of control | dose: 20.0 mg/kg/injection, schedule: Q04DX003 (ip), vehicle: saline 97 % of control | dose: 25.0 mg/kg/injection, schedule: Q01DX009 (ip), vehicle: saline 98 % of control | dose: 25.0 mg/kg/injection, schedule: Q04DX003 (ip), vehicle: saline 95 % of control and 94 % of control | dose: 40.0 mg/kg/injection, schedule: Q01DX009 (ip), vehicle: saline 92 % of control | dose: 40.0 mg/kg/injection, schedule: Q04DX003 (ip), vehicle: saline 94 % of control | [11] 106 % of control | [12] 103 % of control and 94 % of control | dose: 80.0 mg/kg/injection, schedule: Q01DX009 (ip), vehicle: saline 90 % of control | dose: 80.0 mg/kg/injection, schedule: Q04DX003 (ip), vehicle: saline 100 % of control

C=COCCCCCC
inactive: dose: 100.0 mg/kg/injection, schedule: Q04DX002 (ip), vehicle: saline 103 % of control | dose: 200.0 mg/kg/injection, schedule: Q04DX002 (ip), vehicle: saline 100 % of control | dose: 400.0 mg/kg/injection, schedule: Q04DX002 (ip), vehicle: saline 90 % of control

O=C1Nc2cccc3c2N(CCC3)C2=C1CCC2
inactive: dose: 100.0 mg/kg/injection, schedule: Q04DX002 (ip), vehicle: Klucel (hydroxypropylcellulose) (HPC) 105 % of control | dose: 200.0 mg/kg/injection, schedule: Q04DX002 (ip), vehicle: Klucel (hydroxypropylcellulose) (HPC) 105 % of control | dose: 400.0 mg/kg/injection, schedule: Q04DX002 (ip), vehicle: Klucel (hydroxypropylcellulose) (HPC) 108 % of control

Clc1ccc(NP(Br)(c2ccccc2)(c2ccccc2)c2ccccc2)cc1
inactive: dose: 75.0 mg/kg/injection, schedule: Q01DX001 (ip), vehicle: other 107 % of control | dose: 150.0 mg/kg/injection, schedule: Q01DX001 (ip), vehicle: other 104 % of control | dose: 300.0 mg/kg/injection, schedule: Q01DX001 (ip), vehicle: other 101 % of control

CCSCN(C)C
inactive: [11] 102 % of control | [12] 97 % of control | [13] 113 % of control | [5] 101 % of control | [6] 103 % of control | [14] 97 % of control | [7] 105 % of control

CSc1nnc(C)c(=O)[nH]1
inactive: dose: 100.0 mg/kg/injection, schedule: Q01DX001 (ip), vehicle: saline with Tween-80 100 % of control | dose: 200.0 mg/kg/injection, schedule: Q01DX001 (ip), vehicle: saline with Tween-80 102 % of control | dose: 400.0 mg/kg/injection, schedule: Q01DX001 (ip), vehicle: saline with Tween-80 97 % of control

O=C1CC2(C(=O)O)CC3CC2C(O1)C3I (stereo not drawn)
inactive: dose: 100.0 mg/kg/injection, schedule: Q01DX009 (ip), vehicle: carboxymethylcellulose (CMC) 86 % of control | dose: 100.0 mg/kg/injection, schedule: Q04DX003 (ip), vehicle: carboxymethylcellulose (CMC) 105 % of control | dose: 200.0 mg/kg/injection, schedule: Q01DX009 (ip), vehicle: carboxymethylcellulose (CMC) 96 % of control | dose: 200.0 mg/kg/injection, schedule: Q04DX003 (ip), vehicle: carboxymethylcellulose (CMC) 97 % of control | dose: 400.0 mg/kg/injection, schedule: Q01DX009 (ip), vehicle: carboxymethylcellulose (CMC) 94 % of control | dose: 400.0 mg/kg/injection, schedule: Q04DX003 (ip), vehicle: carboxymethylcellulose (CMC) 103 % of control

O=[N+]([O-])c1ccccc1CC1=NCCc2cc3c(cc21)OCO3
inactive: [13] 100 % of control | [14] 102 % of control | dose: 400.0 mg/kg/injection, schedule: Q01DX001 (ip), vehicle: saline 104 % of control
